Experimental data from the supplement of paper PMC11997997.

Columns and labels:
[1] = tested on: Mycobacterium tuberculosis CDC1551 (intracellular, in murine BMDM); assay: area under intracellular growth-inhibition dose-response curve (AUC (% inhibition x dose, relative)); higher = more potent; settings: duration: 6 days; dose range: 0.13-80 uM, 8 points
In short: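 Macrophages derived from primary murine bone marrow were infected for 1 h at multiplicity of infection 1 with luciferase-expressing M. tuberculosis CDC1551, then treated for 6 days at final concentrations of 80–0.13 μM. Bright-Glo luciferin signal, normalised to a reference drug control and the lowest-concentration wells, gave the growth readout. Area under the growth-inhibition dose–response curve was then calculated in GraphPad Prism.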

[2] = tested on: murine bone marrow-derived macrophages; assay: area under cytotoxicity dose-response curve (AUC (% cytotoxicity x dose, relative)); higher = more cytotoxic; settings: duration: 6 days; dose range: 0.13-80 uM, 8 points
In short: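 Primary murine bone marrow-derived macrophages in opaque 384-well plates were exposed to an 8-point, 2.5-fold dilution series (final 80–0.13 μM) for 6 days at 37 °C in 5% CO2. Viability was read with Promega's CellTiter-Glo luminescence assay, and percent cytotoxicity was normalised to vehicle and positive control wells. Cytotoxicity is reported as the area under the dose–response curve, calculated in GraphPad Prism version 10.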

Structure (SMILES)	area under intracellular growth-inhibition dose-response curve [1]	area under cytotoxicity dose-response curve [2]
Cc1nnc(SCC2=C(C(=O)O)N3C(=O)C(NC(=O)Cn4ncc(Cl)c4C)C3SC2)s1 (stereo unspecified)	245	66.2
CC1CCC(C(C)C)C(OC(=O)C[n+]2c(-c3ccc(Br)cc3)n(C)c3ccccc32)C1.[Cl-] (stereo unspecified)	192	82.2
Cc1ccnc2c1ccc1cccnc12	149	208
COc1ccc(C2=NCCn3c2c2ccc(C(F)(F)F)cc2[n+]3[O-])cc1	95.2	108
O=C(OCC(=O)c1ccc(Cl)s1)c1cncc(Br)c1	0.884	95.6
CCOC(=O)/C=C/C(=O)NNC(=O)c1ccccc1Cl	49.3	186
NC(=S)N/N=C/c1ccc(/C=N/NC(N)=S)cc1	258	20.6
S=C(Nc1ccc(N2CCOCC2)cc1)Nc1ccc2snnc2c1	235	57.1
Cc1cc(C)n2nc3nc4c(cc3c2n1)CCCC4	152	< 0
CCN1/C(=C/c2ccc3cc(C)ccc3[n+]2CC)Sc2ccccc21.[I-]	144	176
O=C(NCCc1ccncc1)Nc1cccc(Cl)c1	11.9	79.9
O=C(c1ccc([N+](=O)[O-])o1)N(Cc1nnc(-c2ccccc2Cl)o1)C1CC1	192	41.5
Cc1ccc(/C(O)=C/c2nc3ccccc3oc2=O)cc1	22.9	< 0
CC1CCC(C(C)C)C(OC(=O)Cn2c(-c3ccc(Br)cc3)[n+](C)c3ccccc32)C1.[Cl-] (stereo unspecified)	128	147
O=[N+]([O-])c1ccc(/C=N/Nc2nc(N3CCCC3)nc(N3CCCC3)n2)o1	168	171
CCC(=O)NC(=S)Nc1ccc(N2CCN(C(=O)c3ccc(Cl)cc3)CC2)cc1	269	3.79
NC(=S)c1cn(C2OC(CO)C(O)C2O)c2ncnc(N)c12 (stereo unspecified)	70.2	36.6
CC(C)OC(=O)c1c2c(n3ccccc13)C(=O)c1ccccc1C2=O	209	36.2
CCOc1ccc(OCCC(=O)NNC(=O)c2ccncc2)cc1	272	1.82
COc1ccc(CCNC(=O)c2ccc(Cl)cc2)cc1	241	< 0
O=C(Nc1ccc(S(=O)(=O)Nc2nccs2)cc1)c1c(F)c(F)c(F)c(F)c1F	82.5	64.8
Cc1cccc(NC(=O)COC(=O)CCc2c[nH]c3ccccc23)c1C	27.4	28.4
CC1CCC(NC(=O)c2ccc3c(c2)OCO3)CC1 (stereo unspecified)	218	< 0
CC(=O)n1cc(/C=N/NC(N)=S)c2ccccc21	273	< 0

Structure (SMILES)	area under intracellular growth-inhibition dose-response curve [1]	area under cytotoxicity dose-response curve [2]
CCC(=O)N1CCN(c2ccc(NC(=S)NC(=O)COc3ccccc3)cc2)CC1	194	76.2
COc1ccc(CCNC(=S)Nc2ccccc2)cc1	134	78.8
Cc1cccc(-n2c(C)cc(/C=N/NC(N)=S)c2C)c1	235	< 0
CCOC(=O)c1ccc(N2CN(CC)CNC2=S)cc1	254	10.1
COc1ccc(/C=N/NC(N)=S)cc1OC(=O)c1ccccc1	241	106
Cc1ccc(CNC(=O)c2ccc(Br)o2)cc1	267	< 0
O=C(N/N=C\c1ccc(Cl)s1)C1COc2ccccc2O1 (stereo unspecified)	129	2.47
O=C(/C=C/c1ccc([N+](=O)[O-])o1)NNC(=O)c1ccc(F)cc1	19.6	51.9
Cc1ccc(C)c(-c2nnc(NC(=O)c3ccc([N+](=O)[O-])o3)o2)c1	62	128
COc1c(N2CCN(C(=S)NC3CC4CCC3C4)C(C)C2)c(F)cc2c(=O)c(C(=O)O)cn(C3CC3)c12 (stereo unspecified)	239	8.11
Cc1cc(NC(=O)c2ccc([N+](=O)[O-])o2)ccc1NC(=O)c1ccco1	63.8	88.8
CCCCCCNC(=O)c1ccc(Br)o1	225	< 0
Cc1ccc(C2=NN(C(=O)CCl)C(c3cccs3)C2)o1 (stereo unspecified)	105	25.9
Cc1ccc(-c2nn(-c3ccccc3)cc2/C=N/NC(=O)c2ccncc2)o1	261	48.7
CC1CCN(Cc2nc(-c3ccccc3)no2)CC1.Cl	175	111
C/C(CC(=O)Nc1ccc(N(C)C)cc1)=N\NC(=O)c1ccncc1	219	20.2
CC(=O)Nc1ccc(-c2c(C)cc3oc(=O)cc(-c4ccccc4)c3c2C)cc1	221	113
CCN(CC)CCOC(=O)c1ccc(N/C=C(/C#N)c2nc(-c3ccc(OC)c(OC)c3)cs2)cc1	90.7	36.6
Cc1cccc(OCCCC(=O)NNC(=O)c2ccncc2)c1	224	< 0
Cc1cccc(N2CCN(Cc3ccc([N+](=O)[O-])o3)CC2)c1C	221	38.8
CC(=O)c1ccc(NC(=S)Nc2ccc(N3CCOCC3)cc2)cc1.Cl	260	40.4
CCn1cc(C(=O)NCCc2ccccc2)c(=O)c2cc(S(=O)(=O)N3CCCC3)ccc21	203	74.8
CN(C)[C@@H]1C(=O)C(C(N)=O)=C(O)[C@@]2(O)C(=O)C3=C(O)c4c(O)ccc(Cl)c4[C@@H](O)[C@H]3C[C@@H]12.Cl	253	< 0
O=C1NC(=S)S/C1=C\C=C\c1ccc([N+](=O)[O-])o1	2.55	71.5
